One assay has as its target human recombinant BACE1 (Homo sapiens (Human), UniProt P56817). Description: In vitro enzymatic BACE1 FRET assay. The class given is biochemical. As to conditions: read-out: IC50 IP (μM) BACE1 enzyme. The gist of the method: (§1)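 Fluorescence from cleavage of a quenched peptide spanning the BACE site (50 nM) was read at 488 nm excitation, 590 nm emission. Purified enzyme (Ni-NTA) and compound reacted for one hour before a Tris stop shifted pH to neutral.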

In the next assay the target is human recombinant BACE2 (Homo sapiens (Human), UniProt Q9Y5Z0). In words: In vitro enzymatic BACE2 FRET assay. The format is biochemical. As to conditions: read-out: IC50 IP (μM) BACE2 enzyme. In a few lines: as §1
Chain of human recombinant BACE2 (Q9Y5Z0 63-518): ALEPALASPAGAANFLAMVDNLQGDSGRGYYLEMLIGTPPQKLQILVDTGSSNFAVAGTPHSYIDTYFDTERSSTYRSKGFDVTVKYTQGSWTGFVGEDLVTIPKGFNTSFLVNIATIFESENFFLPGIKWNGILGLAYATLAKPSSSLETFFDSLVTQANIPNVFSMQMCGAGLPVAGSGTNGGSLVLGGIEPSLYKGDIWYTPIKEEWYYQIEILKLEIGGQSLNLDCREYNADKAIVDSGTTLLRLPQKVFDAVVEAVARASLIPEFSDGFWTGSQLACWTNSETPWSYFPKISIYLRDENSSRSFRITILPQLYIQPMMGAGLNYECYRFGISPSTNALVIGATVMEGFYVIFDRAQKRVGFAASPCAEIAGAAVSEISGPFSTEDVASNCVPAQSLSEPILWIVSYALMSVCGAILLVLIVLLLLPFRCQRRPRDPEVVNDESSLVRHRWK
Assay [1] deals with Aβ40 in conditioned medium of cells stably expressing Amyloid Precursor Protein (APP). Description: In vitro BACE-1 cell-based assay (Aβ40 sandwich ELISA). As to conditions: read-out: IC50 IP (μM) BACE1 cell. The gist of the method:
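Aβ40 in supernatants measured by time-resolved fluorescence sandwich ELISA, with pAb40 as capture and biotin-6E10 as detector antibody, each incubated at 4 °C.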
In general terms: In an ELISA, binding on a coated surface is turned into a signal by an enzyme label.

The next assay deals with Recombinant Cat D (Homo sapiens (Human), UniProt P07339). Description: In vitro enzymatic Cathepsin D (Cat D) FRET assay. The format is biochemical. The note with it: read-out: IC50 IP (μM) CatD. In a few lines: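 Assay pH is 3.5 (0.05 M citrate, 5 mM CHAPS, 10% DMSO final) with Cat D from CHO cells. A 20 nM quenched peptide substrate is cleaved over one hour; the reaction is ended with Tris and read by fluorescence (ex 500, em 580 nm).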
Chain of Recombinant Cat D (P07339 65-412): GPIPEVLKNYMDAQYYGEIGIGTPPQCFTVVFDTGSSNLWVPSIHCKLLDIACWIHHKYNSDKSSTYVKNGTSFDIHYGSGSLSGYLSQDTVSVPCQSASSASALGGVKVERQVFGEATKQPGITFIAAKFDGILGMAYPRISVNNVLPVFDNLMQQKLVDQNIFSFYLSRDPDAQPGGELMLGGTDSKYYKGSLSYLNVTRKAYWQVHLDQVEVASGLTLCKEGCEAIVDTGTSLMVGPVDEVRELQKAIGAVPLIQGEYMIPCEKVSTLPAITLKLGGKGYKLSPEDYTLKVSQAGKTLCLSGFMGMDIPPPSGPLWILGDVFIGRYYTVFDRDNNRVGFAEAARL

Chain of human recombinant BACE1 (P56817 46-501): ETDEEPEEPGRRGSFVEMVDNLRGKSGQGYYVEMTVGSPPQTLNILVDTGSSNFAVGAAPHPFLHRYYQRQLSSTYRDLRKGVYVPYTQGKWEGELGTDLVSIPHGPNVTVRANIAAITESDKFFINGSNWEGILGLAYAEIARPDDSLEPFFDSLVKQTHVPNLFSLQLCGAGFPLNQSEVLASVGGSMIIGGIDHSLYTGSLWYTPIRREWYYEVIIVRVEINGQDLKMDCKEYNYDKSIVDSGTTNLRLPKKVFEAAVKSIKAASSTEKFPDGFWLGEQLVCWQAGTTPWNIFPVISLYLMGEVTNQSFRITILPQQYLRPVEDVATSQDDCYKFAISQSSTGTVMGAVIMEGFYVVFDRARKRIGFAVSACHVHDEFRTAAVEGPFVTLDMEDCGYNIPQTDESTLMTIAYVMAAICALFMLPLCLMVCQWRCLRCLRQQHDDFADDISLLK

Regarding `COC[C@]12C[C@H]1[C@@](C)(c1cc(NC(=O)c3cnc(OCC(C)C)cn3)ccc1F)N=C(N)S2` [Example 1056, N-(3-((1S,5S,6S)-3-amino-1-(methoxymethyl)-5-methyl-2-thia-4-azabicyclo[4.1.0]hept-3-en-5-yl)-4-fluorophenyl)-5-(2-methylpropoxy)-2-pyrazinecarboxamide], the IC50 on human recombinant BACE1 came to 0.0014 µM; at human recombinant BACE2 it was 0.317 µM; in assay [1], 0.018 µM; at Recombinant Cat D, 1240 µM.

Turning to `COC[C@]12C[C@H]1[C@@](C)(c1cc(NC(=O)c3cnc(OCC(F)F)cn3)ccc1F)N=C(N)S2` [Example 1057, N-(3-((1S,5S,6S)-3-amino-1-(methoxymethyl)-5-methyl-2-thia-4-azabicyclo[4.1.0]hept-3-en-5-yl)-4-fluorophenyl)-5-(2,2-difluoroethoxy)-2-pyrazinecarboxamide], the IC50 on human recombinant BACE1 is 0.0023 µM; on human recombinant BACE2, 0.158 µM; in assay [1], 0.0033 µM; at Recombinant Cat D, above 400 µM.

Consider `COC[C@]12C[C@H]1[C@@](C)(c1cc(NC(=O)c3cnc(OCC4CCO4)cn3)ccc1F)N=C(N)S2` (stereo partly drawn) [Example 1058, N-(3-((1S,5S,6S)-3-amino-1-(methoxymethyl)-5-methyl-2-thia-4-azabicyclo[4.1.0]hept-3-en-5-yl)-4-fluorophenyl)-5-(oxetan-2-ylmethoxy)pyrazine-2-carboxamide], for which the half-maximal inhibitory concentration (IC50) at human recombinant BACE1 is above 0.016 µM; at human recombinant BACE2, 0.498 µM; in assay [1], 0.01 µM; on Recombinant Cat D it was above 400 µM.

For `CC#CCCOc1cnc(C(=O)Nc2cc(F)c(F)c([C@@]3(C)N=C(N)S[C@@]4(COC)C[C@H]43)c2)cn1` [Example 1059, N-(3-((1S,5S,6S)-3-amino-1-(methoxymethyl)-5-methyl-2-thia-4-azabicyclo[4.1.0]hept-3-en-5-yl)-4,5-difluorophenyl)-5-(3-pentyn-1-yloxy)-2-pyrazinecarboxamide], the IC50 at human recombinant BACE1 was 0.011 µM; on human recombinant BACE2 it was 0.069 µM; in assay [1], 0.02 µM; at Recombinant Cat D, 1320 µM.

Turning to `C#CCCOc1cnc(C(=O)Nc2cc(F)c(F)c([C@@]3(C)N=C(N)S[C@@]4(COC)C[C@H]43)c2)cn1` [Example 1060, N-(3-((1S,5S,6S)-3-amino-1-(methoxymethyl)-5-methyl-2-thia-4-azabicyclo[4.1.0]hept-3-en-5-yl)-4,5-difluorophenyl)-5-(3-butyn-1-yloxy)-2-pyrazinecarboxamide], the half-maximal inhibitory concentration (IC50) is 0.0074 µM at human recombinant BACE1, 0.13 µM at human recombinant BACE2, 0.0076 µM in assay [1] and above 400 µM at Recombinant Cat D.

Consider `COC[C@]12C[C@H]1[C@@](C)(c1cc(NC(=O)c3cnc(OCC4(C)CC4)cn3)cc(F)c1F)N=C(N)S2` [Example 1061, N-(3-((1S,5S,6S)-3-amino-1-(methoxymethyl)-5-methyl-2-thia-4-azabicyclo[4.1.0]hept-3-en-5-yl)-4,5-difluorophenyl)-5-((1-methylcyclopropyl)methoxy)-2-pyrazinecarboxamide], for which the 50% inhibitory concentration (IC50) was 0.0047 µM at human recombinant BACE1, 0.17 µM on human recombinant BACE2, 0.0039 µM in assay [1] and above 400 µM on Recombinant Cat D.

Consider `COC[C@]12C[C@H]1[C@@](C)(c1cc(NC(=O)c3cnc(OCC4(C)COC4)cn3)cc(F)c1F)N=C(N)S2` [Example 1062, N-(3-((1S,5S,6S)-3-amino-1-(methoxymethyl)-5-methyl-2-thia-4-azabicyclo[4.1.0]hept-3-en-5-yl)-4,5-difluorophenyl)-5-((3-methyl-3-oxetanyl)methoxy)-2-pyrazinecarboxamide], for which the IC50 is above 16 µM at human recombinant BACE1, 0.658 µM at human recombinant BACE2, 0.022 µM in assay [1] and above 400 µM on Recombinant Cat D.

The IC50 is the point on the concentration scale where inhibition reaches its midpoint.
